Experimental data reported in PubChem BioAssay AID2060898 (Molecular Pharmacology Branch, DTP, NCI, 2025).

Tested on: 616215-338-R-J1-PDC complex spheroid viability
Test: Anticancer human tumor 616215-338-R-J1-PDC patient-derived colon adenocarcinoma cell line growth inhibition [RAS]
Conditions: for IC50: curve of first compound; for viability, T/C: stronger effect = lower value
In short: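 Tumour cells grown as complex spheroids with HUVEC endothelial cells and mesenchymal stem cells, treated with RAS pathway inhibitor combinations. Each agent spans half-log steps from near clinical Cmax, or 10 microM where Cmax is unknown.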

[1] = second compound 0.00316 µM, first compound 0.0316 µM
[2] = second compound 0.00316 µM, first compound 0.1 µM
[3] = second compound 0.00316 µM, first compound 0.316 µM
[4] = second compound 0.00316 µM, first compound 1 µM
[5] = second compound 0.01 µM, first compound 0.0316 µM
[6] = second compound 0.01 µM, first compound 0.1 µM
[7] = second compound 0.01 µM, first compound 0.316 µM
[8] = second compound 0.01 µM, first compound 1 µM
[9] = second compound 0.0316 µM, first compound 0.0316 µM
[10] = second compound 0.0316 µM, first compound 0.1 µM
[11] = second compound 0.0316 µM, first compound 0.316 µM
[12] = second compound 0.0316 µM, first compound 1 µM
[13] = second compound 0.1 µM, first compound 0.0316 µM
[14] = second compound 0.1 µM, first compound 0.1 µM
[15] = second compound 0.1 µM, first compound 0.316 µM
[16] = second compound 0.1 µM, first compound 1 µM
[17] = second compound 0.316 µM, first compound 0.0316 µM
[18] = second compound 0.316 µM, first compound 0.1 µM
[19] = second compound 0.316 µM, first compound 0.316 µM
[20] = second compound 0.316 µM, first compound 1 µM
[21] = second compound 1 µM, first compound 0.0316 µM
[22] = second compound 1 µM, first compound 0.1 µM
[23] = second compound 1 µM, first compound 0.316 µM
[24] = second compound 1 µM, first compound 1 µM
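Note: spheroids exposed to agents for seven days before viability readout.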
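Throughout, for viability, T/C: 100% = DMSO vehicle control viability.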

Question: Which results are given for `NC1c2ccccc2OC12CCN(c1cnc3c(N4CCCc5ncccc54)n[nH]c3n1)CC2` (centres undefined) + C=CC(=O)N1CCN(c2nc(OCC3CCCN3C)nc3c(F)c(-c4nc(N)cc(C)c4C(F)(F)F)c(Cl)cc23)C(C)C1?
Answer: IC50 (second compound 0.00316 µM): > 10 µM; IC50 (second compound 0.01 µM): > 10 µM; IC50 (second compound 0.0316 µM): > 10 µM; IC50 (second compound 0.1 µM): > 10 µM; IC50 (second compound 0.316 µM): > 10 µM; IC50 (second compound 1 µM): > 10 µM; viability, T/C [1]: 119%; viability, T/C [2]: 114%; viability, T/C [3]: 81.2%; viability, T/C [4]: 79.1%; viability, T/C (second compound 0.00316 µM, first compound 3.16 µM): 58.7%; viability, T/C (second compound 0.00316 µM, first compound 10 µM): 53.5%; viability, T/C [5]: 134%; viability, T/C [6]: 104%; viability, T/C [7]: 95.4%; viability, T/C [8]: 80.5%; viability, T/C (second compound 0.01 µM, first compound 3.16 µM): 83%; viability, T/C (second compound 0.01 µM, first compound 10 µM): 64.2%; viability, T/C [9]: 121%; viability, T/C [10]: 113%; viability, T/C [11]: 95.7%; viability, T/C [12]: 74.9%; viability, T/C (second compound 0.0316 µM, first compound 3.16 µM): 77.4%; viability, T/C (second compound 0.0316 µM, first compound 10 µM): 60.6%; viability, T/C [13]: 112%; viability, T/C [14]: 110%; viability, T/C [15]: 81.3%; viability, T/C [16]: 93.4%; viability, T/C (second compound 0.1 µM, first compound 3.16 µM): 64.7%; viability, T/C (second compound 0.1 µM, first compound 10 µM): 62.1%; viability, T/C [17]: 120%; viability, T/C [18]: 112%; viability, T/C [19]: 91.4%; viability, T/C [20]: 74.3%; viability, T/C (second compound 0.316 µM, first compound 3.16 µM): 70.9%; viability, T/C (second compound 0.316 µM, first compound 10 µM): 52.3%; viability, T/C [21]: 116%; viability, T/C [22]: 101%; viability, T/C [23]: 91.8%; viability, T/C [24]: 83.6%; viability, T/C (second compound 1 µM, first compound 3.16 µM): 73%; viability, T/C (second compound 1 µM, first compound 10 µM): 62.3%

Question: Which results are given for `Nc1ccn(C2OC(CO)C(O)C2(F)F)c(=O)n1` (centres undefined) + C=CC(=O)N1CCN(c2nc(OCC3CCCN3C)nc3c(F)c(-c4nc(N)cc(C)c4C(F)(F)F)c(Cl)cc23)C(C)C1?
Answer: IC50 (second compound 0.00316 µM): 0.0118 µM; IC50 (second compound 0.01 µM): 0.0117 µM; IC50 (second compound 0.0316 µM): 0.0147 µM; IC50 (second compound 0.1 µM): 0.0154 µM; IC50 (second compound 0.316 µM): 0.00851 µM; IC50 (second compound 1 µM): 0.00978 µM; viability, T/C (second compound 0.00316 µM, first compound 0.00316 µM): 96.1%; viability, T/C (second compound 0.00316 µM, first compound 0.01 µM): 53.2%; viability, T/C [1]: 29.3%; viability, T/C [2]: 14.4%; viability, T/C [3]: 14.2%; viability, T/C [4]: 17.6%; viability, T/C (second compound 0.01 µM, first compound 0.00316 µM): 109%; viability, T/C (second compound 0.01 µM, first compound 0.01 µM): 54.9%; viability, T/C [5]: 18.7%; viability, T/C [6]: 15.8%; viability, T/C [7]: 12.9%; viability, T/C [8]: 16.3%; viability, T/C (second compound 0.0316 µM, first compound 0.00316 µM): 108%; viability, T/C (second compound 0.0316 µM, first compound 0.01 µM): 65.1%; viability, T/C [9]: 20.1%; viability, T/C [10]: 13%; viability, T/C [11]: 9.07%; viability, T/C [12]: 16.4%; viability, T/C (second compound 0.1 µM, first compound 0.00316 µM): 88.9%; viability, T/C (second compound 0.1 µM, first compound 0.01 µM): 64%; viability, T/C [13]: 27%; viability, T/C [14]: 14%; viability, T/C [15]: 13.4%; viability, T/C [16]: 14.6%; viability, T/C (second compound 0.316 µM, first compound 0.00316 µM): 111%; viability, T/C (second compound 0.316 µM, first compound 0.01 µM): 39.9%; viability, T/C [17]: 21%; viability, T/C [18]: 11.6%; viability, T/C [19]: 14.9%; viability, T/C [20]: 20.7%; viability, T/C (second compound 1 µM, first compound 0.00316 µM): 90.7%; viability, T/C (second compound 1 µM, first compound 0.01 µM): 49%; viability, T/C [21]: 25.6%; viability, T/C [22]: 16.8%; viability, T/C [23]: 12.6%; viability, T/C [24]: 17.6%
